Data published in ChEMBL document CHEMBL2150953, “Synthesis and antiproliferative activity of helonioside A, 3',4',6'-tri-O-feruloylsucrose, lapathoside C and their analogs” (Eur J Med Chem, 2012).
pIC50: −log10 of the molar value.

Tests used:
Format in all cases: functional, cell-based
HeLa [1] = assay: Cytotoxicity against human HeLa cells after 48 hrs by MTS assay
HeLa [2] = assay: Cytotoxicity against human HeLa cells after 24 hrs by MTS assay
HeLa [3] = assay: Cytotoxicity against human HeLa cells by MTS assay; conditions: TDE = time-dependent effect

Structure (SMILES)	pIC50 (HeLa [1])	pIC50 (HeLa [2])	Activity (HeLa [3])
COc1cc(/C=C/C(=O)OC[C@H]2O[C@]3(COC(C)(C)O[C@H]4[C@H](O[C@@H]5COC(C)(C)O[C@H]5[C@@H]4OC(=O)/C=C/c4ccc(OC(C)=O)c(OC)c4)O3)[C@@H](OC(=O)/C=C/c3ccc(OC(C)=O)c(OC)c3)[C@@H]2OC(=O)/C=C/c2ccc(OC(C)=O)c(OC)c2)ccc1OC(C)=O	5.49		
COc1cc(/C=C/C(=O)OC[C@H]2O[C@]3(COC(C)(C)O[C@H]4[C@H](O[C@@H]5COC(C)(C)O[C@H]5[C@@H]4O)O3)[C@@H](O)[C@@H]2O)ccc1OC(C)=O	< 4.00		
CC[C@@]1(O)C(=O)OCc2c1cc1n(c2=O)Cc2cc3ccccc3nc2-1 [CAMPTOTHECIN]	6.40		
COc1cc(/C=C/C(=O)OC[C@H]2O[C@]3(COC(C)(C)O[C@H]4[C@H](O[C@@H]5COC(C)(C)O[C@H]5[C@@H]4O)O3)[C@@H](OC(=O)/C=C/c3ccc(OC(C)=O)c(OC)c3)[C@@H]2OC(=O)/C=C/c2ccc(OC(C)=O)c(OC)c2)ccc1OC(C)=O	6.80		
COc1cc(/C=C/C(=O)OC[C@H]2O[C@H](O[C@]3(CO)O[C@H](COC(=O)/C=C/c4ccc(O)cc4)[C@@H](O)[C@@H]3OC(=O)/C=C/c3ccc(O)cc3)[C@H](O)[C@@H](OC(=O)/C=C/c3ccc(O)cc3)[C@@H]2O)ccc1O	5.51		
CC(=O)Oc1ccc(/C=C/C(=O)OC[C@H]2O[C@@](CO)(O[C@H]3O[C@H](COC(=O)/C=C/c4ccc(OC(C)=O)cc4)[C@@H](O)[C@H](OC(=O)/C=C/c4ccc(OC(C)=O)cc4)[C@H]3O)[C@@H](OC(=O)/C=C/c3ccc(OC(C)=O)cc3)[C@@H]2O)cc1	5.73		
COc1cc(/C=C/C(=O)OC[C@H]2O[C@@](CO)(O[C@H]3O[C@H](CO)[C@@H](O)[C@H](OC(=O)/C=C/c4ccc(O)c(OC)c4)[C@H]3O)[C@@H](OC(=O)/C=C/c3ccc(O)c(OC)c3)[C@@H]2OC(=O)/C=C/c2ccc(O)c(OC)c2)ccc1O	5.79	5.10	tde
COc1cc(/C=C/C(=O)OC[C@H]2O[C@H](O[C@]3(CO)O[C@H](COC(=O)/C=C/c4ccc(OC(C)=O)cc4)[C@@H](O)[C@@H]3OC(=O)/C=C/c3ccc(OC(C)=O)cc3)[C@H](O)[C@@H](OC(=O)/C=C/c3ccc(OC(C)=O)c(OC)c3)[C@@H]2O)ccc1OC(C)=O	5.50		
COc1cc(/C=C/C(=O)OC[C@H]2O[C@@](CO)(O[C@H]3O[C@H](CO)[C@@H](O)[C@H](O)[C@H]3O)[C@@H](OC(=O)/C=C/c3ccc(O)c(OC)c3)[C@@H]2OC(=O)/C=C/c2ccc(O)c(OC)c2)ccc1O	4.65	4.26	tde
COc1cc(/C=C/C(=O)OC[C@H]2O[C@H](O[C@]3(CO)O[C@H](COC(=O)/C=C/c4ccc(O)cc4)[C@@H](O)[C@@H]3OC(=O)/C=C/c3ccc(O)cc3)[C@H](O)[C@@H](O)[C@@H]2O)ccc1O [LAPATHOSIDE C]	4.90		
COc1cc(/C=C/C(=O)OC[C@H]2O[C@@](CO)(O[C@H]3O[C@H](CO)[C@@H](O)[C@H](O)[C@H]3O)[C@@H](OC(=O)/C=C/c3ccc(OC(C)=O)c(OC)c3)[C@@H]2O)ccc1OC(C)=O	< 4.00		
O=C(/C=C/c1ccc(O)cc1)OC[C@H]1O[C@@](CO)(O[C@H]2O[C@H](COC(=O)/C=C/c3ccc(O)cc3)[C@@H](O)[C@H](OC(=O)/C=C/c3ccc(O)cc3)[C@H]2O)[C@@H](OC(=O)/C=C/c2ccc(O)cc2)[C@@H]1O	5.77		
COc1cc(/C=C/C(=O)OC[C@H]2O[C@]3(COC(C)(C)O[C@H]4[C@H](O[C@@H]5COC(C)(C)O[C@H]5[C@@H]4O)O3)[C@@H](OC(=O)/C=C/c3ccc(OC(C)=O)c(OC)c3)[C@@H]2O)ccc1OC(C)=O	5.22	4.55	tde
COc1cc(/C=C/C(=O)OC[C@H]2O[C@@](CO)(O[C@H]3O[C@H](CO)[C@@H](O)[C@H](O)[C@H]3O)[C@@H](OC(=O)/C=C/c3ccc(O)c(OC)c3)[C@@H]2O)ccc1O [HELONIOSIDE A]	< 4.00		
COc1cc(/C=C/C(=O)OC[C@H]2O[C@@](CO)(O[C@H]3O[C@H](CO)[C@@H](O)[C@H](O)[C@H]3O)[C@@H](OC(=O)/C=C/c3ccc(OC(C)=O)c(OC)c3)[C@@H]2OC(=O)/C=C/c2ccc(OC(C)=O)c(OC)c2)ccc1OC(C)=O	5.77		
COc1cc(/C=C/C(=O)OC[C@H]2O[C@H](O[C@]3(CO)O[C@H](COC(=O)/C=C/c4ccc(O)cc4)[C@@H](O)[C@@H]3OC(=O)/C=C/c3ccc(O)cc3)[C@H](O)[C@@H](OC(=O)/C=C/c3ccc(O)c(OC)c3)[C@@H]2O)ccc1O	5.78		
COc1cc(/C=C/C(=O)OC[C@H]2O[C@H](O[C@]3(CO)O[C@H](COC(=O)/C=C/c4ccc(OC(C)=O)cc4)[C@@H](O)[C@@H]3OC(=O)/C=C/c3ccc(OC(C)=O)cc3)[C@H](O)[C@@H](O)[C@@H]2O)ccc1OC(C)=O	< 4.00		
COc1cc(/C=C/C(=O)OC[C@H]2O[C@]3(COC(C)(C)O[C@H]4[C@H](O[C@@H]5COC(C)(C)O[C@H]5[C@@H]4O)O3)[C@@H](OC(=O)/C=C/c3ccc(O)c(OC)c3)[C@@H]2OC(=O)/C=C/c2ccc(O)c(OC)c2)ccc1O	5.38		
